The subject of this assay is MV-4-11 cells. Kind of assay: Gene expression microarray analysis (Affymetrix PrimeView) and GSEA. Also on record: RFU PODN (11730768_x_at) / Fold change /veh PODN (11730768_x_at) / RFU LINC00158 (11744669_a_at) / Fold change /veh LINC00158 (11744669_a_at) / RFU DUSP10 (11751237_a_at) / Fold change /veh DUSP10 (11751237_a_at) / RFU ID3 (11757404_x_at) / Fold change /veh ID3 (11757404_x_at) / RFU PLEKHG5 (11737974_s_at) / Fold change /veh PLEKHG5 (11737974_s_at) / RFU LRRC4B (11730491_at) / Fold change /veh LRRC4B (11730491_at) / RFU GIMAP4 (11747438_a_at) / Fold change /veh GIMAP4 (11747438_a_at) / RFU KRT8 (11758183_x_at) / Fold change /veh KRT8 (11758183_x_at) / RFU CNN1 (11734310_a_at) / Fold change /veh CNN1 (11734310_a_at) / RFU VPS37D (11726825_at) / Fold change /veh VPS37D (11726825_at) / RFU C10orf10 (11716522_x_at) / Fold change /veh C10orf10 (11716522_x_at) / RFU KIR2DL2 /// KIR2DL4 /// KIR2DL5A /// KIR2DL5B /// KIR2DS1 /// KIR2DS2 /// KIR2DS3 /// KIR2DS4 /// KIR3DL3 /// KIR3DL3 /// KIR3DS1 (11738374_at) / Fold change /veh KIR2DL2 /// KIR2DL4 /// KIR2DL5A /// KIR2DL5B /// KIR2DS1 /// KIR2DS2 /// KIR2DS3 /// KIR2DS4 /// KIR3DL3 /// KIR3DL3 /// KIR3DS1 (11738374_at) / RFU C1QL1 (11718748_at) / Fold change /veh C1QL1 (11718748_at) / RFU TMPRSS4 (11747572_a_at) / Fold change /veh TMPRSS4 (11747572_a_at) / RFU HAMP (11756126_x_at) / Fold change /veh HAMP (11756126_x_at) / RFU RNFT2 (11725882_a_at) / Fold change /veh RNFT2 (11725882_a_at) / RFU NR4A2 (11747474_a_at) / Fold change /veh NR4A2 (11747474_a_at) / RFU ABCC12 (11746883_a_at) / Fold change /veh ABCC12 (11746883_a_at) / RFU TMEM136 (11760407_x_at) / Fold change /veh TMEM136 (11760407_x_at) / RFU CLDN22 /// WWC2 (11732394_at) / Fold change /veh CLDN22 /// WWC2 (11732394_at) / RFU HLA-DPB1 (11760878_x_at) / Fold change /veh HLA-DPB1 (11760878_x_at) / RFU SPINT1 (11716480_a_at) / Fold change /veh SPINT1 (11716480_a_at) / RFU GAP43 (11754022_s_at) / Fold change /veh GAP43 (11754022_s_at) / RFU A4GNT (11735810_at) / Fold change /veh A4GNT (11735810_at) / RFU PRB3 (11715151_x_at) / Fold change /veh PRB3 (11715151_x_at) / RFU TUBB4B (11761932_at) / Fold change /veh TUBB4B (11761932_at) / RFU CAPN14 (11732068_a_at) / Fold change /veh CAPN14 (11732068_a_at) / RFU TMCC2 (11721928_a_at) / Fold change /veh TMCC2 (11721928_a_at) / RFU IRGQ (11745062_a_at) / Fold change /veh IRGQ (11745062_a_at) / RFU FAM174B (11720279_a_at) / Fold change /veh FAM174B (11720279_a_at) / RFU TMPRSS4 (11748680_a_at) / Fold change /veh TMPRSS4 (11748680_a_at) / RFU FAM212B (11763350_a_at) / Fold change /veh FAM212B (11763350_a_at) / RFU PLEKHG5 (11743358_a_at) / Fold change /veh PLEKHG5 (11743358_a_at) / RFU ZSCAN30 (11745921_a_at) / Fold change /veh ZSCAN30 (11745921_a_at) / RFU CMKLR1 (11741424_a_at) / Fold change /veh CMKLR1 (11741424_a_at) / RFU LOC101060620 /// MAPK8IP1 (11723275_at) / Fold change /veh LOC101060620 /// MAPK8IP1 (11723275_at) / RFU SPTSSB (11747773_x_at) / Fold change /veh SPTSSB (11747773_x_at) / RFU PRSS12 (11739890_at) / Fold change /veh PRSS12 (11739890_at) / RFU BIN1 (11741810_x_at) / Fold change /veh BIN1 (11741810_x_at) / RFU WNT11 (11732464_a_at) / Fold change /veh WNT11 (11732464_a_at) / RFU C10orf10 (11716521_a_at) / Fold change /veh C10orf10 (11716521_a_at) / RFU C5orf56 (11738089_at) / Fold change /veh C5orf56 (11738089_at) / RFU CYB561 (11721691_x_at) / Fold change /veh CYB561 (11721691_x_at) / RFU ANKRD19P (11752326_a_at) / Fold change /veh ANKRD19P (11752326_a_at) / RFU OR2T12 /// OR2T33 /// OR2T8 (11738714_s_at) / Fold change /veh OR2T12 /// OR2T33 /// OR2T8 (11738714_s_at) / RFU VCAN (11748164_a_at) / Fold change /veh VCAN (11748164_a_at) / RFU JSRP1 (11732532_at) / Fold change /veh JSRP1 (11732532_at) / RFU KRTAP10-11 (11738290_x_at) / Fold change /veh KRTAP10-11 (11738290_x_at) / RFU MYO3A (11730013_a_at) / Fold change /veh MYO3A (11730013_a_at) / RFU EBF3 (11725865_a_at) / Fold change /veh EBF3 (11725865_a_at) / RFU CAMK2N1 (11719241_x_at) / Fold change /veh CAMK2N1 (11719241_x_at) / RFU C5orf56 (11738088_a_at) / Fold change /veh C5orf56 (11738088_a_at) / RFU OLFML3 (11715873_a_at) / Fold change /veh OLFML3 (11715873_a_at) / RFU LOC100653217 /// NTM (11731650_a_at) / Fold change /veh LOC100653217 /// NTM (11731650_a_at) / RFU MAPK11 (11762145_a_at) / Fold change /veh MAPK11 (11762145_a_at) / RFU FIZ1 (11724087_x_at) / Fold change /veh FIZ1 (11724087_x_at) / RFU OASL (11726364_x_at) / Fold change /veh OASL (11726364_x_at) / RFU SOX15 (11748057_x_at) / Fold change /veh SOX15 (11748057_x_at) / RFU CD79A (11719716_a_at) / Fold change /veh CD79A (11719716_a_at) / RFU HIST1H1D (11736915_at) / Fold change /veh HIST1H1D (11736915_at) / RFU CASKIN2 (11723855_a_at) / Fold change /veh CASKIN2 (11723855_a_at) / RFU LOC730098 (11760151_x_at) / Fold change /veh LOC730098 (11760151_x_at) / RFU OR4N2 (11742367_at) / Fold change /veh OR4N2 (11742367_at) / RFU PRRT2 (11749266_a_at) / Fold change /veh PRRT2 (11749266_a_at) / RFU SNX32 (11753110_a_at) / Fold change /veh SNX32 (11753110_a_at) / RFU CDHR5 (11726645_a_at) / Fold change /veh CDHR5 (11726645_a_at) / RFU RCAN1 (11760418_a_at) / Fold change /veh RCAN1 (11760418_a_at) / RFU FAM167A (11723789_a_at) / Fold change /veh FAM167A (11723789_a_at) / RFU FAM26E (11764081_at) / Fold change /veh FAM26E (11764081_at) / RFU ISYNA1 (11749810_s_at) / Fold change /veh ISYNA1 (11749810_s_at) / RFU ACY1 (11761880_at) / Fold change /veh ACY1 (11761880_at) / RFU 11764098_at / Fold change /veh 11764098_at / RFU SAMD14 (11745864_x_at) / Fold change /veh SAMD14 (11745864_x_at) / RFU NPB (11741838_a_at) / Fold change /veh NPB (11741838_a_at) / RFU TMPRSS6 (11731388_a_at) / Fold change /veh TMPRSS6 (11731388_a_at) / RFU KRTAP10-2 (11738614_at) / Fold change /veh KRTAP10-2 (11738614_at) / RFU ARHGAP8 /// PRR5-ARHGAP8 (11727945_x_at) / Fold change /veh ARHGAP8 /// PRR5-ARHGAP8 (11727945_x_at) / RFU KRTAP5-7 /// NADSYN1 (11734609_at) / Fold change /veh KRTAP5-7 /// NADSYN1 (11734609_at) / RFU RASL12 (11751679_a_at) / Fold change /veh RASL12 (11751679_a_at) / RFU CDKN2B (11736163_a_at) / Fold change /veh CDKN2B (11736163_a_at) / RFU PRF1 (11729649_at) / Fold change /veh PRF1 (11729649_at) / RFU, ZNF638 /// ZNF638-IT1 / Fold change vs veh, ZNF638 /// ZNF638-IT1 / RFU, PANK3 / Fold change vs veh, PANK3 / RFU, SH3YL1 / Fold change vs veh, SH3YL1 / RFU, ZEB2 / Fold change vs veh, ZEB2 / RFU, NRIP1 / Fold change vs veh, NRIP1 / RFU, PTTG1IP / Fold change vs veh, PTTG1IP / RFU, CAPN2 / Fold change vs veh, CAPN2 / RFU, MED14 / Fold change vs veh, MED14 / RFU, SNORA58 / Fold change vs veh, SNORA58 / RFU, C1orf63 / Fold change vs veh, C1orf63 / RFU, LRRFIP1 / Fold change vs veh, LRRFIP1 / RFU, NDUFAF7 / Fold change vs veh, NDUFAF7 / RFU, SLC12A2 / Fold change vs veh, SLC12A2 / RFU, IBTK / Fold change vs veh, IBTK / RFU, ESF1 / Fold change vs veh, ESF1 / Fold change vs veh, TMEM50B / RFU, TAOK1 / Fold change vs veh, TAOK1 / RFU, ACBD3 / Fold change vs veh, ACBD3 / RFU, TMA16 / Fold change vs veh, TMA16 / RFU, RWDD3 / Fold change vs veh, RWDD3 / RFU, BCAT1 / Fold change vs veh, BCAT1 / RFU, EDEM3 / Fold change vs veh, EDEM3 / RFU, TMEM33 / Fold change vs veh, TMEM33 / RFU, WDR75 / Fold change vs veh, WDR75 / RFU, AHCTF1 / Fold change vs veh, AHCTF1 / RFU, TFRC / Fold change vs veh, TFRC / RFU, ZDHHC17 / Fold change vs veh, ZDHHC17 / RFU, NOM1 / Fold change vs veh, NOM1 / RFU, ARL8B / Fold change vs veh, ARL8B / RFU, ZBTB11 / Fold change vs veh, ZBTB11 / RFU, TAMM41 / Fold change vs veh, TAMM41 / RFU, KIAA1704 /// LOC100996395 / Fold change vs veh, KIAA1704 /// LOC100996395 / RFU, ING1 / Fold change vs veh, ING1 / RFU, TRMT61B / Fold change vs veh, TRMT61B / RFU, FUBP3 / Fold change vs veh, FUBP3 / RFU, TP53 / Fold change vs veh, TP53 / RFU, TNKS2 / Fold change vs veh, TNKS2 / RFU, ZFP14 / Fold change vs veh, ZFP14 / RFU, ACTR2 / Fold change vs veh, ACTR2 / RFU, PPP3R1 / Fold change vs veh, PPP3R1 / RFU, PIK3R1 / Fold change vs veh, PIK3R1 / RFU, HNRNPA1 / Fold change vs veh, HNRNPA1 / RFU, RNF170 / Fold change vs veh, RNF170 / RFU, ZNF28 / Fold change vs veh, ZNF28 / RFU, RNGTT / Fold change vs veh, RNGTT / RFU, OGT / Fold change vs veh, OGT / RFU, BRD1 / Fold change vs veh, BRD1 / RFU, MARS / Fold change vs veh, MARS / RFU, ZNF655 / Fold change vs veh, ZNF655 / RFU, FAHD1 / Fold change vs veh, FAHD1 / RFU, BDP1 / Fold change vs veh, BDP1 / RFU, LRRCC1 / Fold change vs veh, LRRCC1 / RFU, ARID1A / Fold change vs veh, ARID1A / RFU, ZNF146 / Fold change vs veh, ZNF146 / RFU, ZNF330 / Fold change vs veh, ZNF330 / RFU, GPN3 / Fold change vs veh, GPN3 / RFU, C9orf123 / Fold change vs veh, C9orf123 / RFU, N4BP2L2 / Fold change vs veh, N4BP2L2 / RFU, ARFIP1 / Fold change vs veh, ARFIP1 / RFU, FAM179B / Fold change vs veh, FAM179B / RFU, BCL10 / Fold change vs veh, BCL10 / RFU, UHRF1BP1L / Fold change vs veh, UHRF1BP1L / RFU, BET1 / Fold change vs veh, BET1 / RFU, CNOT2 / Fold change vs veh, CNOT2 / RFU, ZNF268 / Fold change vs veh, ZNF268 / Fold change vs veh, ZNF507 / RFU, DGCR2 / Fold change vs veh, DGCR2 / RFU, WDSUB1 / Fold change vs veh, WDSUB1 / Fold change vs veh, HSP90B1 /// MIR3652 / RFU, ADSS / Fold change vs veh, ADSS / RFU, GK / Fold change vs veh, GK / RFU, ZNF148 / Fold change vs veh, ZNF148 / RFU, TAF9 / Fold change vs veh, TAF9 / RFU, SLC1A5 / Fold change vs veh, SLC1A5 / RFU, SLMO2 / Fold change vs veh, SLMO2 / RFU, ABCC4 / Fold change vs veh, ABCC4 / RFU, LOC101060439 /// RAP1B / Fold change vs veh, LOC101060439 /// RAP1B / RFU, RFX7 / Fold change vs veh, RFX7 / RFU, GTPBP10 / Fold change vs veh, GTPBP10 / RFU, CNEP1R1 / Fold change vs veh, CNEP1R1 / RFU, BIVM-ERCC5 /// ERCC5 / Fold change vs veh, BIVM-ERCC5 /// ERCC5 / RFU, ILF3 / Fold change vs veh, ILF3 / RFU 11762660_at / Fold change /veh 11762660_at / RFU VCAN (11757783_s_at) / Fold change /veh VCAN (11757783_s_at) / RFU DDX43 (11728927_at) / Fold change /veh DDX43 (11728927_at) / RFU KRT8 (11758188_x_at) / Fold change /veh KRT8 (11758188_x_at) / RFU NKD1 (11759106_at) / Fold change /veh NKD1 (11759106_at) / RFU SRD5A1 (11742802_a_at) / Fold change /veh SRD5A1 (11742802_a_at) / RFU TPSAB1 /// TPSB2 (11721975_s_at) / Fold change /veh TPSAB1 /// TPSB2 (11721975_s_at) / RFU GSTM3 (11746129_a_at) / Fold change /veh GSTM3 (11746129_a_at) / RFU IL23R (11737362_x_at) / Fold change /veh IL23R (11737362_x_at) / RFU TMEM51 (11727254_a_at) / Fold change /veh TMEM51 (11727254_a_at) / RFU PIWIL2 (11732686_x_at) / Fold change /veh PIWIL2 (11732686_x_at) / RFU ORM1 (11744905_x_at) / Fold change /veh ORM1 (11744905_x_at) / RFU CCDC152 (11743942_at) / Fold change /veh CCDC152 (11743942_at) / RFU ECM1 (11717891_a_at) / Fold change /veh ECM1 (11717891_a_at) / RFU IL23R (11748794_a_at) / Fold change /veh IL23R (11748794_a_at) / RFU TNFAIP8L3 (11732012_x_at) / Fold change /veh TNFAIP8L3 (11732012_x_at) / RFU MBOAT4 (11741988_at) / Fold change /veh MBOAT4 (11741988_at) / RFU 11764193_at / Fold change /veh 11764193_at / RFU TMEM53 (11763286_at) / Fold change /veh TMEM53 (11763286_at) / RFU MAGEB2 (11727129_at) / Fold change /veh MAGEB2 (11727129_at) / RFU TMEM200A (11744735_a_at) / Fold change /veh TMEM200A (11744735_a_at) / RFU CCDC152 (11751479_a_at) / Fold change /veh CCDC152 (11751479_a_at) / RFU FAM211A (11726209_a_at) / Fold change /veh FAM211A (11726209_a_at) / RFU RGS16 (11746705_a_at) / Fold change /veh RGS16 (11746705_a_at) / RFU VCAN (11755009_s_at) / Fold change /veh VCAN (11755009_s_at) / RFU RHOB (11743442_s_at) / Fold change /veh RHOB (11743442_s_at) / RFU RGS16 (11720943_a_at) / Fold change /veh RGS16 (11720943_a_at) / RFU RGS16 (11720944_at) / Fold change /veh RGS16 (11720944_at) / RFU, VPS4B / Fold change vs veh, VPS4B / RFU, CREB1 / Fold change vs veh, CREB1 / RFU, DNAJC13 / Fold change vs veh, DNAJC13 / RFU, GNAQ / Fold change vs veh, GNAQ / RFU, CDK5R1 / Fold change vs veh, CDK5R1 / RFU, ZRANB3 / Fold change vs veh, ZRANB3 / RFU, CUL4A / Fold change vs veh, CUL4A / RFU, CCNY / Fold change vs veh, CCNY / RFU, UFL1 / Fold change vs veh, UFL1 / RFU, COG3 / Fold change vs veh, COG3 / RFU, DIAPH2 / Fold change vs veh, DIAPH2 / RFU, SKA2 / Fold change vs veh, SKA2 / RFU, AFF3 / Fold change vs veh, AFF3 / RFU, LMF1 / Fold change vs veh, LMF1 / RFU, IPO11 / Fold change vs veh, IPO11 / RFU, DFFB / Fold change vs veh, DFFB / RFU, FOXP1 / Fold change vs veh, FOXP1 / RFU, CARD8 / Fold change vs veh, CARD8 / RFU, STRN3 / Fold change vs veh, STRN3 / RFU, ADK / Fold change vs veh, ADK / RFU, RASSF2 / Fold change vs veh, RASSF2 / RFU, WIPF1 / Fold change vs veh, WIPF1 / RFU, LARP1B / Fold change vs veh, LARP1B / RFU, RASA1 / Fold change vs veh, RASA1 / RFU, RB1 / Fold change vs veh, RB1 / RFU, PPFIA1 / Fold change vs veh, PPFIA1 / RFU, MAT2A / Fold change vs veh, MAT2A / RFU, CCT5 / Fold change vs veh, CCT5 / RFU, WDR92 / Fold change vs veh, WDR92 / RFU, CUX1 / Fold change vs veh, CUX1 / RFU, TTC7A / Fold change vs veh, TTC7A / RFU, TMEM135 / Fold change vs veh, TMEM135 / RFU, DEPTOR / Fold change vs veh, DEPTOR / RFU, CPM / Fold change vs veh, CPM / RFU, DNAJB6 / Fold change vs veh, DNAJB6 / RFU, CACNA2D3 / Fold change vs veh, CACNA2D3 / RFU, DTX4 / Fold change vs veh, DTX4 / RFU, TFCP2 / Fold change vs veh, TFCP2 / RFU, GMCL1 /// GMCL1P1 / Fold change vs veh, GMCL1 /// GMCL1P1 / RFU, AEBP2 / Fold change vs veh, AEBP2 / RFU, SNHG1 /// SNORD22 /// SNORD25 /// SNORD26 /// SNORD27 /// SNORD28 /// SNORD29 /// SNORD31 / Fold change vs veh, SNHG1 /// SNORD22 /// SNORD25 /// SNORD26 /// SNORD27 /// SNORD28 /// SNORD29 /// SNORD31 / Fold change (Aza/veh), C12orf56 (ProbeSet 11735607_a_at) / Fold change (ACY-1035/veh), C12orf56 (ProbeSet 11735607_a_at) / Fold change (Aza/veh), FGFR1OP (ProbeSet 11751329_s_at) / Fold change (ACY-1035/veh), FGFR1OP (ProbeSet 11751329_s_at) / Fold change (Aza/veh), VPS36 (ProbeSet 11739960_a_at) / Fold change (ACY-1035/veh), VPS36 (ProbeSet 11739960_a_at) / RFU SYPL1 (11715823_x_at) / Fold change /veh SYPL1 (11715823_x_at) / RFU IGFBP7 (11715501_s_at) / Fold change /veh IGFBP7 (11715501_s_at) / RFU REEP3 (11722064_at) / Fold change /veh REEP3 (11722064_at) / RFU IGLL1 (11728026_x_at) / Fold change /veh IGLL1 (11728026_x_at): dose or concentration left out as unconfirmed. The format is cell-based, human. The conditions noted are these: ProbeSet 11745260_x_at; LIST B.

Consider `Nc1ncn([C@@H]2O[C@H](CO)[C@@H](O)[C@H]2O)c(=O)n1` [azacitidine], for which the “Fold change vs veh, SLC12A2” value worked out at 0.91.

These data come from paper PMC5218480 (PLoS ONE, 2017).
